According to patent publication US20160185797A1, “ALKYNYL ALCOHOLS AND METHODS OF USE” (Genentech, Inc., priority 2013, published 2016):

molecular target: T1, nuclear factor-kappa B (NF-kB)-inducing kinase (NIK) (Homo sapiens, UniProt Q99558); assay: NIK enzyme inhibition assay (Transcreener ADP fluorescence polarization, NIK ADP-FP); type: biochemical
T1 construct: made in house; host or cells: baculovirus-infected insect cells
T1 sequence (Q99558 whole entry): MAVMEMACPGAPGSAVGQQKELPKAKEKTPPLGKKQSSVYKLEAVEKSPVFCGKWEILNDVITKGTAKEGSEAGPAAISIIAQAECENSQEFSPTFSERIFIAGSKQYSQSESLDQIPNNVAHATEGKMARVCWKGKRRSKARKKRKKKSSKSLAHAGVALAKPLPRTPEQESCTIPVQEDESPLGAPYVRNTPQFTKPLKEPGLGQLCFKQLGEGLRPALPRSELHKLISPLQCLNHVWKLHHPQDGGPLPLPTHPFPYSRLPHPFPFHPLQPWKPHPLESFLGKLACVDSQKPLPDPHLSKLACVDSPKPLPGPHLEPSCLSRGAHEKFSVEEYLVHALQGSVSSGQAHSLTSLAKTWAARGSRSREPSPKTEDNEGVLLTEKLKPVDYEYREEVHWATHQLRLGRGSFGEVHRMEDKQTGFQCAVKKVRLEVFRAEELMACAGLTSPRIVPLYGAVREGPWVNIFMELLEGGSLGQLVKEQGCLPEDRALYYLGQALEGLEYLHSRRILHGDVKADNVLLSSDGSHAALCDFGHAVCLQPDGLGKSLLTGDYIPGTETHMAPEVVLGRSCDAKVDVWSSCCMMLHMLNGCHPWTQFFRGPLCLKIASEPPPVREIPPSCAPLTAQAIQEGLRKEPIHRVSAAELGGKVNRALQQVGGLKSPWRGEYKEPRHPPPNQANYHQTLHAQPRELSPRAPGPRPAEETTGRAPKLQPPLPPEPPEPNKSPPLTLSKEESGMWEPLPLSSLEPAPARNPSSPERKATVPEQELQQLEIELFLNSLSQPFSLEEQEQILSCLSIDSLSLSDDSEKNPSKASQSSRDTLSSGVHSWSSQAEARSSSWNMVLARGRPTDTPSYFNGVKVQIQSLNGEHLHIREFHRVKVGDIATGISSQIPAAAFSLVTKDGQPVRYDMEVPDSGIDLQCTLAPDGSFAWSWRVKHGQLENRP
Method: NIK Enzyme Inhibition Assay:
The ability of the nuclear factor-kappa B (NF-kB)-inducing kinase (NIK) to catalyze the hydrolysis of adenosine-5′-triphosphate (ATP) was monitored using the Transcreener ADP (adenosine-5′-diphosphate) assay (BellBrook Labs). […] Reactions were quenched by the addition of 20 mM 2,2′,2″,2′″-(ethane-1,2-diyldinitrilo)tetraacetic acid and 0.01% Brij 35. The tracer bound to the antibody was displaced by the ADP generated during the NIK reaction, which causes a decrease in fluorescence polarization that was measured by laser excitation at 633 nm with a Fluorescence Correlation Spectroscopy Plus reader (Evotec AG). Equilibrium dissociation constant (Ki) values for NIK inhibitors are calculated from plots of activity vs. inhibitor concentration using Morrison's quadratic equation that accounts for the potential of tight binding, and by also applying the conversion factor that accounted for competitive inhibition and the concentration of substrate used in the assay relative to its Michaelis constant (Km).

SMILES	Ki [nM]
CN1CC[C@@](O)(C#Cc2cccc(-c3cc(-n4ccnc4)cc(C(N)=O)n3)c2)C1=O [Example 182, 6-[3-[2-[(3R)-3-hydroxy-l-methyl-2-oxo-pyrrolidin-3-yl]ethynyl]phenyl]-4-imidazol-1-yl-pyridine-2-carboxamide]	0.17
COc1cc(C(N)=O)nc(-c2cc(C#C[C@]3(O)CCN(C)C3=O)ccc2F)c1 [Example 179, 6-[2-fluoro-5-[2-[(3R)-3-hydroxy-l-methyl-2-oxo-pyrrolidin-3-yl]ethynyl]phenyl]-4-methoxy-pyridine-2-carboxamide]	< 0.05
NC(=O)c1nc(-c2cccc(C#C[C@@]3(O)CCOC3=O)c2)ccc1N (single isomer, unassigned) [Example 65]	38
Cc1cnc([C@@](C)(O)C#Cc2cccc(-c3nc(C(N)=O)c4ccn(C)c4n3)c2)o1 [Example 54, 2-[3-[(3S)-3-hydroxy-3-(5-methyloxazol-2-yl)but-1-ynyl]phenyl]-7-methyl-pyrrolo[2,3-d] pyrimidine-4-carboxamide]	510
COc1cc(C(N)=O)nc(-c2cccc(C#C[C@]3(O)CCN(C)C3=O)c2)c1F [Example 185, 5-fluoro-6-[3-[2-[(3R)-3-hydroxy-1-methyl-2-oxo-pyrrolidin-3-yl]ethynyl]phenyl]-4-methoxy-pyridine-2-carboxamide]	0.5
COc1cc(C(N)=O)nc(-c2cc(C#C[C@]3(O)CCN(C)C3=O)c(F)cc2F)c1 [Example 191, 6[2,4-difluoro-5-[2-[(3R)-3-hydroxy-l-methy1-2-oxo-pyrrolidin-3-yl]ethynyl]phenyl]-4-methoxy-pyridine-2-carboxamide]	< 0.05
CN1CC[C@@](O)(C#Cc2cccc(-c3cc(N4CC(F)(F)C4)cc(C(N)=O)n3)c2)C1=O [Example 200, 4-(3,3-difluoroazetidin-1-yl)-6-[3-[2-[(3R)-3-hydroxy-1-methyl-2-oxo-pyrrolidin-3-yl]ethynyl]phenyl]pyridine-2-carboxamide]	< 0.05
CC(C)n1ncc2c(-c3cccc(C#C[C@]4(O)CCN(C)C4=O)c3)nc(C(N)=O)cc21 [Example 115, 4-[3-[2-[(3R)-3-hydroxy-1-methyl-2-oxo-pyrrolidin-3-yl]ethynyl]phenyl]-1-isopropyl-pyrazolo[4,3-c]pyridine-6-carboxamide]	1.77
CN1CC[C@@](O)(C#Cc2cccc(-c3nc(N[C@H]4CCOC4)cc(C(N)=O)n3)c2)C1=O (single isomer, unassigned) [Example 30]	23.2
CN1CC[C@@](O)(C#Cc2cccc(-c3nc(C(N)=O)cc4nccn34)c2)C1=O [Example 61, 5-[3-[2-[(3R)-3-hydroxy-1-methyl-2-oxo-pyrrolidin-3-yl]ethynyl]phenyl]imidazo [1,2-c]pyrimidine-7-carboxamide]	4.33
CC(C)C[C@H]1CCCN1c1cc(C(N)=O)nc(-c2cccc(C#C[C@]3(O)CCN(C)C3=O)c2)n1 [Example 25, 2-[3-[2-[(3R)-3-hydroxy-1-methyl-2-oxo-pyrrolidin-3-yl]ethynyl]phenyl]-6-[(2R)-2-isobutylpyrrolidin-1-yl] pyrimidine-4-carboxamide]	5.57
Cc1ccc(C(N)=O)nc1-c1cccc(C#C[C@]2(O)CCN(C)C2=O)c1 [Example 140, 6-[3-[2-[(3R)-3-hydroxy-1-methyl-2-oxo-pyrrolidin-3-yl]ethynyl]phenyl]-5-methyl-pyridine-2-carboxamide]	23.8
CN1CC[C@@](O)(C#Cc2cc(-c3nccc(C(N)=O)n3)c3cn[nH]c3c2)C1=O [Example 156, 2-[6-[2-[(3R)-3-hydroxy-1-methyl-2-oxo-pyrrolidin-3-yl]ethynyl]-1H-indazol-4-yl] pyrimidine-4-carboxamide]	11.3
COCc1cc(-c2cccc(C#C[C@]3(O)CCN(C)C3=O)c2)nc(C(N)=O)n1 [Example 183, 4-[3-[2-[(3R)-3-hydroxy-l-methyl-2-oxo-pyrrolidin-3-yl]ethynyl]phenyl]-6-(methoxymethyl)pyrimidine-2-carboxamide]	0.49
CN1CC[C@@](O)(C#Cc2cccc(-c3nc(C(N)=O)c4c(n3)N(C)CC4)c2)C1=O [Example 192, 2-[3-[2-[(3R)-3-hydroxy-1-methyl-2-oxo-pyrrolidin-3-yl]ethynyl]phenyl]-7-methyl-5,6-dihydropyrrolo[2,3-d] pyrimidine-4-carboxamide]	0.4
CN1CC[C@@](O)(C#Cc2cccc(-c3nc(C(N)=O)ccc3C(F)F)c2)C1=O [Example 188, 5-(difluoromethyl)-6-[3[2-[(3R)-3-hydroxy-1-methyl-2-oxo-pyrrolidin-3-yl]ethynyl]phenyl]pyridine-2-carboxamide]	9.53
CN1CC[C@@](O)(C#Cc2cc(-c3cnc(N)c(C(N)=O)n3)c3ncsc3c2)C1=O [Example 196, 3-amino-6-[6-[2-[(3R)-3-hydroxy-1-methyl-2-oxo-pyrrolidin-3-yl]ethynyl]-1,3-benzothiazol-4-yl]pyrazine-2-carboxamide]	1
CC(=O)Nc1cc(C(N)=O)nc(-c2cccc(C#C[C@]3(O)CCN(C)C3=O)c2)c1 [Example 175, 4-acetamido-6-[3-[2-[(3R)-3-hydroxy-1-methyl-2-oxo-pyrrolidin-3-yl]ethynyl]phenyl] pyridine-2-carboxamide]	0.08
CN1CCC(O)(C#Cc2cccc(-c3nc(C(N)=O)ncc3NCC(F)(F)F)c2)C1=O (stereo in doubt) [Example 147, 4-[3-[2-[(3R)-3-hydroxy-1-methyl-2-oxo-pyrrolidin-3-yl]ethynyl]phenyl]-5-(2,2,2-trifluoroethylamino) pyrimidine-2-carboxamide]	879
CN1CC[C@@](O)(C#Cc2cc3c(c(-c4nccc(C(N)=O)n4)c2)CCN3)C1=O [Example 184, 2-[6-[2-[(3R)-3-hydroxy-1-methyl-2-oxo-pyrrolidin-3-yl]ethynyl]indolin-4-yl] pyrimidine-4-carboxamide]	0.14
CN1CC[C@@](O)(C#Cc2cccc(-c3cc(OCC(F)(F)F)cc(C(N)=O)n3)c2)C1=O [Example 189, 6-[3-[2-[(3R)-3-hydroxy-1-methyl-2-oxo-pyrrolidin-3-yl]ethynyl]phenyl]-4(2,2,2-trifluoroethoxy)pyridine-2-carboxamide]	0.15
CN1CC[C@@](O)(C#Cc2cccc(-c3cc(CO)cc(C(N)=O)n3)c2)C1=O [Example 197, 4-(hydroxymethyl)-6-[3-[2-[(3R)-3-hydroxy-1-methyl-2-oxo-pyrrolidin-3-yl]ethynyl]phenyl]pyridine-2-carboxamide]	0.8
COc1cc(C(N)=O)nc(-c2ccc(F)c(C#C[C@]3(O)CCN(C)C3=O)c2)c1 [Example 180, 6-[4-fluoro-3-[2-[(3R)-3-hydroxy-1-methyl-2-oxo-pyrrolidin-3-yl]ethynyl]phenyl]-4-methoxy-pyridine-2-carboxamide]	< 0.05
Cc1c(O)cc(-c2cccc(C#C[C@]3(O)CCN(C)C3=O)c2)nc1C(N)=O [Example 178, 4-hydroxy-6-[3-[2-[(3R)-3-hydroxy-1-methyl-2-oxo-pyrrolidin-3-yl]ethynyl]phenyl]-3-methyl-pyridine-2-carboxamide]	2.87
CN1CC[C@@](O)(C#Cc2cccc(-c3nc(C(N)=O)cc(N4CC[C@@H](O)C4)n3)c2)C1=O [Example 24, 2-[3-[2-[(3R)-3-hydroxy-1-methyl-2-oxo-pyrrolidin-3-yl]ethynyl]phenyl]-6-[(3R)-3-hydroxypyrrolidin-1-yl] pyrimidine-4-carboxamide]	1.05
